Source: the supplement of paper PMC10307832

Columns and labels:
Test in all cases: relative viability (nuclei count vs DMSO), 5 days (fraction); higher = more cells survive
[1] = tested on: IA-LM
Method in brief: (§1)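 Lung cancer cell lines were pin-tool dosed in 1536-well plates on the day after seeding, with either a lone drug or a fixed anchor-drug dose plus five library-drug doses (not always all listed) in √10 steps. Nuclei were counted on 4× images after 5 days. Relative viability is the ratio of treated-well to vehicle-well nuclei counts, with each value a median of duplicate plates.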

[2] = tested on: EBC-1
Method in brief: as §1

[3] = tested on: UMC-11
Method in brief: as §1

[4] = tested on: NCI-H1703
Method in brief: as §1

[5] = tested on: NCI-H1993
Method in brief: as §1

[6] = tested on: NCI-H1299
Method in brief: as §1

[7] = tested on: NCI-H23
Method in brief: as §1

[8] = tested on: A549
Method in brief: as §1

[9] = tested on: NCI-H1355
Method in brief: as §1

[10] = tested on: NCI-H322M
Method in brief: as §1

[11] = tested on: LCLC-97TM1
Method in brief: as §1

[12] = tested on: NCI-H596
Method in brief: as §1

[13] = tested on: Calu-6
Method in brief: as §1

Compound: COc1nc(C)cnc1NS(=O)(=O)c1cccnc1-c1ccc(-c2nnco2)cc1 [Zibotentan] + CS(=O)(=O)CCNCc1ccc(-c2ccc3ncnc(Nc4ccc(OCc5cccc(F)c5)c(Cl)c4)c3c2)o1 [Lapatinib] (partner 2 µM)
- relative viability ([1]; first compound 0.08 µM): 0.68
- relative viability ([1]; first compound 0.253 µM): 0.808
- relative viability ([1]; first compound 0.8 µM): 0.9
- relative viability ([1]; first compound 2.53 µM): 0.847
- relative viability ([2]; first compound 0.08 µM): 0.235
- relative viability ([2]; first compound 0.253 µM): 0.222
- relative viability ([2]; first compound 0.8 µM): 0.222
- relative viability ([2]; first compound 2.53 µM): 0.2
- relative viability ([3]; first compound 0.08 µM): 0.919
- relative viability ([3]; first compound 0.253 µM): 0.86
- relative viability ([3]; first compound 0.8 µM): 0.967
- relative viability ([3]; first compound 2.53 µM): 1.06
- relative viability ([4]; first compound 0.08 µM): 0.968
- relative viability ([4]; first compound 0.253 µM): 0.894
- relative viability ([4]; first compound 0.8 µM): 1.24
- relative viability ([4]; first compound 2.53 µM): 0.511
- relative viability ([5]; first compound 0.253 µM): 0.792
- relative viability ([5]; first compound 0.8 µM): 0.88
- relative viability ([5]; first compound 2.53 µM): 0.768
- relative viability ([6]; first compound 0.08 µM): 0.989
- relative viability ([6]; first compound 0.253 µM): 0.906
- relative viability ([6]; first compound 0.8 µM): 0.959
- relative viability ([6]; first compound 2.53 µM): 0.928
- relative viability ([7]; first compound 0.08 µM): 1.22
- relative viability ([7]; first compound 0.253 µM): 0.987
- relative viability ([7]; first compound 0.8 µM): 1.19
- relative viability ([7]; first compound 2.53 µM): 1.26
- relative viability ([8]; first compound 0.08 µM): 1.03
- relative viability ([8]; first compound 0.253 µM): 1.01
- relative viability ([8]; first compound 0.8 µM): 1.05
- relative viability ([8]; first compound 2.53 µM): 1.12
- relative viability ([9]; first compound 0.08 µM): 1.01
- relative viability ([9]; first compound 0.253 µM): 1.03
- relative viability ([9]; first compound 0.8 µM): 0.946
- relative viability ([9]; first compound 2.53 µM): 0.977
- relative viability ([10]; first compound 0.08 µM): 0.553
- relative viability ([10]; first compound 0.253 µM): 0.621
- relative viability ([10]; first compound 0.8 µM): 0.582
- relative viability ([10]; first compound 2.53 µM): 0.624
- relative viability ([11]; first compound 0.08 µM): 1.01
- relative viability ([11]; first compound 0.253 µM): 0.95
- relative viability ([11]; first compound 0.8 µM): 0.841
- relative viability ([11]; first compound 2.53 µM): 0.93
- relative viability ([12]; first compound 0.08 µM): 1.03
- relative viability ([12]; first compound 0.253 µM): 1.12
- relative viability ([12]; first compound 0.8 µM): 1.08
- relative viability ([12]; first compound 2.53 µM): 1.08
- relative viability ([13]; first compound 0.08 µM): 1.02
- relative viability ([13]; first compound 0.253 µM): 1.06
- relative viability ([13]; first compound 0.8 µM): 1.16
- relative viability ([13]; first compound 2.53 µM): 1.14
